Values quoted from earlier work in patent WO2013169007A1, “Sustained-release complex preparations for treating diabetes with improved drug compliance and method for preparing same” (priority 2012, dated 2013).

Q: For CCC1=C(C)CN(C(=O)NCCc2ccc(S(=O)(=O)NC(=O)N[C@H]3CC[C@H](C)CC3)cc2)C1=O [glimepiride], which drug half-life (continuous administration) is on record?
A: The drug half-life was “about 9 hours”.

Q: And the “absorption by the gastrointestinal tract” value (in vivo, po)?
A: The value was “almost completely absorbed”.
